Results: ChEMBL document CHEMBL3112450, “Synthesis and in vitro antitumor evaluation of primary amine substituted quinazoline linked benzimidazole” (Bioorg Med Chem Lett, 2014)

Test system: M14
Experiment: Cytotoxicity against human M14 cells assessed as cell growth at 10^-5 M after 48 hrs by SRB assay
Assay type: functional
Settings: M14, 48 h, read-out: Activity

Row | Compound | growth at 10 µM [%]
1 | C=CCn1c(C)nc2ccc(Nc3nc(NCCO)nc4ccccc34)cc21 | 111

Test system: MOLT-4
Experiment: Cytotoxicity against human MOLT4 cells assessed as cell growth at 10^-5 M after 48 hrs by SRB assay
Assay type: functional
Settings: MOLT-4, 48 h, read-out: Activity

Row | Compound | growth at 10 µM [%]
2 | C=CCn1c(C)nc2ccc(Nc3nc(NCCO)nc4ccccc34)cc21 | 96.7

Test system: NCI-H522
Experiment: Cytotoxicity against human NCI-H522 cells assessed as cell growth at 10^-5 M after 48 hrs by SRB assay
Assay type: functional
Settings: NCI-H522, 48 h, read-out: Activity

Row | Compound | growth at 10 µM [%]
3 | C=CCn1c(C)nc2ccc(Nc3nc(NCCO)nc4ccccc34)cc21 | 101

Test system: IGROV-1
Experiment: Cytotoxicity against human IGROV1 cells assessed as cell growth at 10^-5 M after 48 hrs by SRB assay
Assay type: functional
Settings: IGROV-1, 48 h, read-out: Activity

Row | Compound | growth at 10 µM [%]
4 | C=CCn1c(C)nc2ccc(Nc3nc(NCCO)nc4ccccc34)cc21 | 90.1

Test system: not listed separately
Experiment: Cytotoxicity against human UO31 cells assessed as cell growth at 10^-5 M after 48 hrs by SRB assay
Assay type: functional
Settings: UO-31, 48 h, read-out: Activity

Row | Compound | growth at 10 µM [%]
5 | C=CCn1c(C)nc2ccc(Nc3nc(NCCO)nc4ccccc34)cc21 | 92.6

Test system: not listed separately
Experiment: Cytotoxicity against human OVCAR5 cells assessed as cell growth at 10^-5 M after 48 hrs by SRB assay
Assay type: functional
Settings: OVCAR-5, 48 h, read-out: Activity

Row | Compound | growth at 10 µM [%]
6 | C=CCn1c(C)nc2ccc(Nc3nc(NCCO)nc4ccccc34)cc21 | 107

Test system: MDA-MB-435
Experiment: Cytotoxicity against human MDA-MB-435 cells assessed as cell growth at 10^-5 M after 48 hrs by SRB assay
Assay type: functional
Settings: MDA-MB-435, 48 h, read-out: Activity

Row | Compound | growth at 10 µM [%]
7 | C=CCn1c(C)nc2ccc(Nc3nc(NCCO)nc4ccccc34)cc21 | 102

Test system: NCI-H226
Experiment: Cytotoxicity against human NCI-H226 cells assessed as cell growth at 10^-5 M after 48 hrs by SRB assay
Assay type: functional
Settings: NCI-H226, 48 h, read-out: Activity

Row | Compound | growth at 10 µM [%]
8 | C=CCn1c(C)nc2ccc(Nc3nc(NCCO)nc4ccccc34)cc21 | 107

Test system: not listed separately
Experiment: Cytotoxicity against human NCI-ADR-RES cells assessed as cell growth at 10^-5 M after 48 hrs by SRB assay
Assay type: functional
Settings: read-out: Activity

Row | Compound | growth at 10 µM [%]
9 | C=CCn1c(C)nc2ccc(Nc3nc(NCCO)nc4ccccc34)cc21 | 106

Test system: HCC 2998
Experiment: Cytotoxicity against human HCC2998 cells assessed as cell growth at 10^-5 M after 48 hrs by SRB assay
Assay type: functional
Settings: HCC 2998, 48 h, read-out: Activity

Row | Compound | growth at 10 µM [%]
10 | C=CCn1c(C)nc2ccc(Nc3nc(NCCO)nc4ccccc34)cc21 | 110

Test system: SF-295
Experiment: Cytotoxicity against human SF295 cells assessed as cell growth at 10^-5 M after 48 hrs by SRB assay
Assay type: functional
Settings: SF-295, 48 h, read-out: Activity

Row | Compound | growth at 10 µM [%]
11 | C=CCn1c(C)nc2ccc(Nc3nc(NCCO)nc4ccccc34)cc21 | 146

Test system: MDA-MB-231
Experiment: Cytotoxicity against human MDA-MB-231 cells assessed as cell growth at 10^-5 M after 48 hrs by SRB assay
Assay type: functional
Settings: MDA-MB-231, 48 h, read-out: Activity

Row | Compound | growth at 10 µM [%]
12 | C=CCn1c(C)nc2ccc(Nc3nc(NCCO)nc4ccccc34)cc21 | 84.5

Test system: MDA-MB-468
Experiment: Cytotoxicity against human MDA-MB-468 cells assessed as cell growth at 10^-5 M after 48 hrs by SRB assay
Assay type: functional
Settings: MDA-MB-468, 48 h, read-out: Activity

Row | Compound | growth at 10 µM [%]
13 | C=CCn1c(C)nc2ccc(Nc3nc(NCCO)nc4ccccc34)cc21 | 119

Test system: MCF7
Experiment: Cytotoxicity against human MCF7 cells assessed as cell growth at 10^-5 M after 48 hrs by SRB assay
Assay type: functional
Settings: MCF7, 48 h, read-out: Activity

Row | Compound | growth at 10 µM [%]
14 | C=CCn1c(C)nc2ccc(Nc3nc(NCCO)nc4ccccc34)cc21 | 93.7

Test system: not listed separately
Experiment: Cytotoxicity against human UACC257 cells assessed as cell growth at 10^-5 M after 48 hrs by SRB assay
Assay type: functional
Settings: UACC-257, 48 h, read-out: Activity

Row | Compound | growth at 10 µM [%]
15 | C=CCn1c(C)nc2ccc(Nc3nc(NCCO)nc4ccccc34)cc21 | 100

Test system: U-251
Experiment: Cytotoxicity against human U251 cells assessed as cell growth at 10^-5 M after 48 hrs by SRB assay
Assay type: functional
Settings: U-251, 48 h, read-out: Activity

Row | Compound | growth at 10 µM [%]
16 | C=CCn1c(C)nc2ccc(Nc3nc(NCCO)nc4ccccc34)cc21 | 98.5

Test system: NCI-H460
Experiment: Cytotoxicity against human NCI-H460 cells assessed as cell growth at 10^-5 M after 48 hrs by SRB assay
Assay type: functional
Settings: NCI-H460, 48 h, read-out: Activity

Row | Compound | growth at 10 µM [%]
17 | C=CCn1c(C)nc2ccc(Nc3nc(NCCO)nc4ccccc34)cc21 | 103

Test system: HCT-116
Experiment: Cytotoxicity against human HCT116 cells assessed as cell growth at 10^-5 M after 48 hrs by SRB assay
Assay type: functional
Settings: HCT-116, 48 h, read-out: Activity

Row | Compound | growth at 10 µM [%]
18 | C=CCn1c(C)nc2ccc(Nc3nc(NCCO)nc4ccccc34)cc21 | 94.7

Test system: KM12
Experiment: Cytotoxicity against human KM12 cells assessed as cell growth at 10^-5 M after 48 hrs by SRB assay
Assay type: functional
Settings: KM12, 48 h, read-out: Activity

Row | Compound | growth at 10 µM [%]
19 | C=CCn1c(C)nc2ccc(Nc3nc(NCCO)nc4ccccc34)cc21 | 102

Test system: UACC-62
Experiment: Cytotoxicity against human UACC62 cells assessed as cell growth at 10^-5 M after 48 hrs by SRB assay
Assay type: functional
Settings: UACC-62, 48 h, read-out: Activity

Row | Compound | growth at 10 µM [%]
20 | C=CCn1c(C)nc2ccc(Nc3nc(NCCO)nc4ccccc34)cc21 | 92.7

Test system: SNB-19
Experiment: Cytotoxicity against human SNB19 cells assessed as cell growth at 10^-5 M after 48 hrs by SRB assay
Assay type: functional
Settings: SNB-19, 48 h, read-out: Activity

Row | Compound | growth at 10 µM [%]
21 | C=CCn1c(C)nc2ccc(Nc3nc(NCCO)nc4ccccc34)cc21 | 93.9
